In patent US11655235B2, “Pyrrolidine and piperidine compounds” (YUHAN CORPORATION, priority 2019, dated 2023):

Columns and labels:
Assay type in all cases: biochemical
[1] = biological target: T1, recombinant human DPP7 (Homo sapiens, UniProt Q9UHL4); experiment: DPP7 inhibition, fluorogenic substrate Lys-Pro-AMC; details: recombinant human DPP7
T1 construct: purchased R&D Systems
Outline: (§1)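 Enzyme per reaction: 50 ng DPP9, 20 ng DPP8, 10 ng each DPP7 and PREP. Compounds were serially diluted (8 points, up to 0.5% DMSO) and incubated at 25 °C.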

[2] = biological target: T2, recombinant human DPP9 (Homo sapiens, UniProt Q86TI2); experiment: DPP9 inhibition, fluorogenic substrate H-Gly-Pro-AMC; details: recombinant human DPP9
T2 construct: purchased R&D Systems
Outline: as §1

[3] = biological target: T3, Recombinant human FAP (Homo sapiens, UniProt Q12884); experiment: FAP FRET assay, FGF21-sequence FRET peptide substrate; details: FRET peptide with human FGF21 sequence, 6 μM, 37° C.
T3 construct: purchased R&D systems
T3 sequence (Q12884 1-760): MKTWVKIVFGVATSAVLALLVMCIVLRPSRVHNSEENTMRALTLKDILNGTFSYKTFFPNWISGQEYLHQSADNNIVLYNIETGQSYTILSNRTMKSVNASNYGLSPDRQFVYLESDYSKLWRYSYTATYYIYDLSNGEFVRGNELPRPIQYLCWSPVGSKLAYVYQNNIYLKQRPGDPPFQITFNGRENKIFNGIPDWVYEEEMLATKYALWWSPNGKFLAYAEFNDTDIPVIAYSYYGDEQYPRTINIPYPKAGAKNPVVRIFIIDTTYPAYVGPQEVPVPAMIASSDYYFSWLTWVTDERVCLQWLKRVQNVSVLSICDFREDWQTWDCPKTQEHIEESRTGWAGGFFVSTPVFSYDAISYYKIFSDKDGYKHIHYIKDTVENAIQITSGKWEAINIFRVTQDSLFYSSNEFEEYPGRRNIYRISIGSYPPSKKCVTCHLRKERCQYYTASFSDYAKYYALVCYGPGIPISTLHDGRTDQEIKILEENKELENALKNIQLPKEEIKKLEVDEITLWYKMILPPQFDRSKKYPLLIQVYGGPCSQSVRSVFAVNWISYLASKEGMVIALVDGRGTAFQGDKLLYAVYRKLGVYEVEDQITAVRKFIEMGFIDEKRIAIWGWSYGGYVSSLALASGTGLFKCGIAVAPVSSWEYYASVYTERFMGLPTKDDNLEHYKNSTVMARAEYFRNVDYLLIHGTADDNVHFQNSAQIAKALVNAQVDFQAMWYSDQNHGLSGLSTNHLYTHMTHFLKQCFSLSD
Outline: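 Recombinant human FAP, 10 ng per reaction, in 50 mM HEPES pH 7.2 with 150 mM NaCl, 0.1 mg/ml BSA, 1 mM EDTA; HyLite Fluor 488/QXL 520 FRET peptide of human FGF21 sequence at 6 μM final, ≤0.1% DMSO, 37° C. IC50 from 8-point curves by four-parameter logistic fit.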

T2 sequence (Q86TI2 whole entry): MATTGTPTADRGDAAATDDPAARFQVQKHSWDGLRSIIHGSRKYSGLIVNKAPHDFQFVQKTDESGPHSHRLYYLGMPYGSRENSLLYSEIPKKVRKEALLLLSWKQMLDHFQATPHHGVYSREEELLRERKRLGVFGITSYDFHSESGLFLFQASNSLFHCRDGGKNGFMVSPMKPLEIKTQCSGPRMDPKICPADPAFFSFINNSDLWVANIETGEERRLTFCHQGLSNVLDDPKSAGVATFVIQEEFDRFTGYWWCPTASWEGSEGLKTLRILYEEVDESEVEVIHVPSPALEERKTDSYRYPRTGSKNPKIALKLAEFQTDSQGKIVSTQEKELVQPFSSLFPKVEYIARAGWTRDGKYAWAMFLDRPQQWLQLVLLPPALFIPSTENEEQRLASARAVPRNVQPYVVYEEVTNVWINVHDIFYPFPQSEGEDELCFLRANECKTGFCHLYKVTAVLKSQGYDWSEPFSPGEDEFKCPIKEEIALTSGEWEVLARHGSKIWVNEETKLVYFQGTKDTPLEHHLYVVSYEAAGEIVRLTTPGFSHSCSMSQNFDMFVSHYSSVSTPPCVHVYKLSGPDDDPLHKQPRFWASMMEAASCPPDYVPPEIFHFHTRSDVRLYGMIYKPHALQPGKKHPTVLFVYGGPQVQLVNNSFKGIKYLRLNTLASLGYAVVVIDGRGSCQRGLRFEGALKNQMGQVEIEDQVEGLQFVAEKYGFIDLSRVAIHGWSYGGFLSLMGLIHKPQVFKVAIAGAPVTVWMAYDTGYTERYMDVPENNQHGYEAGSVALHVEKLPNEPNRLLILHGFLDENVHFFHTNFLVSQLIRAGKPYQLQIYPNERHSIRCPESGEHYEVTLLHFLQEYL

N#C[C@@H]1C[C@H](F)CN1C(=O)CN1CC[C@H](Nc2cccc3ncccc23)C1 [Example 228, (2S,4S)-4-fluoro-1-[2-[(3S)-3-(5-quinolylamino)pyrrolidin-1-yl]acetyl]pyrrolidine-2-carbonitrile]
IC50 [1]: 387 nM | IC50 [2]: 7480 nM | IC50 [3]: 3 nM

N#Cc1cnc2cccc(N[C@H]3CCN(CC(=O)N4CCC[C@H]4C#N)C3)c2c1 [Example 232, 5-[[(3S)-1-[2-oxo-2-[(2S)-2-cyanopyrrolidin-1-yl]ethyl]pyrrolidin-3-yl]amino]quinoline-3-carbonitrile]
IC50 [1]: 7150 nM | IC50 [2]: 29000 nM | IC50 [3]: 1.8 nM

COc1cnc2cccc(N[C@H]3CCN(CC(=O)N4CCC[C@H]4C#N)C3)c2c1 [Example 233, (2S)-1-[2-[(3S)-3-[(3-methoxy-5-quinolyl)amino]pyrrolidin-1-yl]acetyl]pyrrolidine-2-carbonitrile]
IC50 [1]: 1070 nM | IC50 [2]: 21200 nM | IC50 [3]: 0.7 nM

N#C[C@@H]1CCCN1C(=O)CN1CC[C@H](Nc2ccc(F)c3ncccc23)C1 [Example 244, (2S)-1-[2-[(3S)-3-[(8-fluoro-5-quinolyl)amino]pyrrolidin-1-yl]acetyl]pyrrolidine-2-carbonitrile]
IC50 [1]: 9140 nM | IC50 [2]: 31900 nM | IC50 [3]: 5.6 nM

N#C[C@@H]1CCCN1C(=O)CN1CC[C@H](Nc2ccc(C(F)(F)F)c3ncccc23)C1 [Example 245, (2S)-1-[2-[(3S)-3-[[8-(trifluoromethyl)-5-quinolyl]amino]pyrrolidin-1-yl]acetyl]pyrrolidine-2-carbonitrile]
IC50 [1]: 3750 nM | IC50 [2]: > 100000 nM | IC50 [3]: 1.2 nM

N#Cc1ccc(N[C@H]2CCN(CC(=O)N3CCC[C@H]3C#N)C2)c2cccnc12 [Example 247, 5-[[(3S)-1-[2-oxo-2-[(2S)-2-cyanopyrrolidin-1-yl]ethyl]pyrrolidin-3-yl]amino]quinoline-8-carbonitrile]
IC50 [1]: > 50000 nM | IC50 [2]: > 100000 nM | IC50 [3]: 2 nM

N#C[C@@H]1C[C@H](F)CN1C(=O)CN1CC[C@H](Nc2cccc3ncc(F)cc23)C1 [Example 255, (2S,4S)-4-fluoro-1-[2-[(3S)-3-[(3-fluoro-5-quinolyl)amino]pyrrolidin-1-yl]acetyl]pyrrolidine-2-carbonitrile]
IC50 [1]: 1850 nM | IC50 [2]: 7360 nM | IC50 [3]: 1 nM

COc1ccc(N[C@H]2CCN(CC(=O)N3C[C@@H](F)C[C@H]3C#N)C2)c2cccnc12 [Example 263, (2S,4S)-4-fluoro-1-[2-[(3S)-3-[(8-methoxy-5-quinolyl)amino]pyrrolidin-1-yl]acetyl]pyrrolidine-2-carbonitrile]
IC50 [1]: 554 nM | IC50 [2]: 3830 nM | IC50 [3]: 1.9 nM

N#C[C@@H]1C[C@H](F)CN1C(=O)CN1CC[C@H](Nc2ccc(OC(F)(F)F)c3ncccc23)C1 [Example 266, (2S,4S)-4-fluoro-1-[2-[(3S)-3-[[8-(trifluoromethoxy)-5-quinolyl]amino]pyrrolidin-1-yl]acetyl]pyrrolidine-2-carbonitrile]
IC50 [1]: 1070 nM | IC50 [2]: 4380 nM | IC50 [3]: 1.2 nM

N#C[C@@H]1C[C@H](F)CN1C(=O)CN1CC[C@H](Nc2ccc(OCc3ccccc3)c3ncccc23)C1 [Example 268, (2S,4S)-4-fluoro-1-[2-[(3S)-3-[(8-benzyloxy-5-quinolyl)amino]pyrrolidin-1-yl]acetyl]pyrrolidine-2-carbonitrile]
IC50 [1]: 511 nM | IC50 [2]: 877 nM | IC50 [3]: 0.7 nM

N#C[C@@H]1C[C@H](F)CN1C(=O)CN1CCC(Nc2ccc(C(F)(F)F)c3ncccc23)CC1 [Example 334, (2S,4S)-4-fluoro-1-[2-[4-[[8-(trifluoromethyl)-5-quinolyl]amino]-1-piperidyl]acetyl]pyrrolidine-2-carbonitrile]
IC50 [1]: 404 nM | IC50 [2]: 1090 nM | IC50 [3]: 2.6 nM

N#C[C@@H]1C[C@H](F)CN1C(=O)CN1CCC(Nc2ccc(OC(F)(F)F)c3ncccc23)CC1 [Example 347, (2S,4S)-4-fluoro-1-[2-[4-[[8-(trifluoromethoxy)-5-quinolyl]amino]-1-piperidyl]acetyl]pyrrolidine-2-carbonitrile]
IC50 [1]: 1010 nM | IC50 [2]: 2960 nM | IC50 [3]: 5.7 nM

COc1cnc2cccc(NC3CCN(CC(=O)N4C[C@@H](F)C[C@H]4C#N)CC3)c2c1 [Example 348, (2S,4S)-4-fluoro-1-[2-[4-[(3-methoxy-5-quinolyl)amino]-1-piperidyl]acetyl]pyrrolidine-2-carbonitrile]
IC50 [1]: 612 nM | IC50 [2]: 6200 nM | IC50 [3]: 3.9 nM

N#C[C@@H]1C[C@H](F)CN1C(=O)CN1CCC(Nc2cccc3ncc(F)cc23)CC1 [Example 349, (2S,4S)-4-fluoro-1-[2-[4-[(3-fluoro-5-quinolyl)amino]-1-piperidyl]acetyl]pyrrolidine-2-carbonitrile]
IC50 [1]: 1990 nM | IC50 [2]: 5060 nM | IC50 [3]: 4 nM

N#C[C@@H]1C[C@H](F)CN1C(=O)CN1CCC(Nc2cccc3cnc(Cl)cc23)CC1 [Example 352, (2S,4S)-1-[2-[4-[(3-chloro-5-isoquinolyl)amino]-1-piperidyl]acetyl]-4-fluoro-pyrrolidine-2-carbonitrile]
IC50 [1]: 2930 nM | IC50 [2]: 9770 nM | IC50 [3]: 2.5 nM

COc1cc2c(NC3CCN(CC(=O)N4C[C@@H](F)C[C@H]4C#N)CC3)cccc2cn1 [Example 355, (2S,4S)-4-fluoro-1-[2-[4-[(3-methoxy-5-isoquinolyl)amino]-1-piperidyl]acetyl]pyrrolidine-2-carbonitrile]
IC50 [1]: 846 nM | IC50 [2]: 9860 nM | IC50 [3]: 2.5 nM

Cc1ccc2nccc(OC3CCN(CC(=O)N4C[C@@H](F)C[C@H]4C#N)CC3)c2c1 [Example 410, (2S,4S)-4-fluoro-1-[2-[4-[(6-methyl-4-quinolyl)oxy]-1-piperidyl]acetyl]pyrrolidine-2-carbonitrile]
IC50 [1]: 4730 nM | IC50 [2]: 17700 nM | IC50 [3]: 1.5 nM
